Assay results reported in patent US4533739A, “2-[(Aminophenyl and amidophenyl)amino]-1-azacycloalkanes having antidiarrheal activity” (G. D. Searle & Co., priority 1982, dated 1985).
Where a name gives a salt, the structure may show the parent alone.

Tests used:
[1] = lowering of blood pressure, hyperglycemic activity, inhibitory action on central nervous system; cited from earlier work
[2] = tested on: castor-oil-induced diarrhea; test: Castor oil-induced diarrhea in rats; conditions: Rattus norvegicus, po, 4 h, read-out: Castor Oil ID50 (mg/kg)-4 hr.

For Clc1cccc(Cl)c1N=C1CCCN1 [2-(2,6-dichloroophenylimino)pyrrolidine], the “pharmacodynamic activity in words” value [1] is listed as “pharmacodynamically active”.

With Cc1cc(N)ccc1NC1=NCCC1.Cl.Cl [Example 9, 2-[(2-Methyl-4-aminophenyl)amino]-1-pyrroline, dihydrochloride] the ED50 [2] was 0.97 mg/kg.

With Cc1cc(N)cc(C)c1NC1=NCCC1.Cl.Cl [Example 11, 2-[(2,6-Dimethyl-4-aminophenyl)amino]-1-pyrroline, dihydrochloride] the ED50 [2] was 13.6 mg/kg.

With CC(=O)Nc1ccc(NC2=NCCC2)c(C)c1 [Example 16, 2-[(2-Methyl-4-acetamidopheny)amino]-1-pyrroline, hydrochloride] the ED50 [2] was 3.63 mg/kg.

In the case of CCC(=O)Nc1ccc(NC2=NCCC2)c(C)c1.Cl [Example 18, 2-[(2-Methyl-4-(propanamido)phenyl)amino]-1-pyrroline, hydrochloride], the ED50 [2] is reported as 0.97 mg/kg.

Work on CCOC(=O)Nc1ccc(NC2=NCCC2)c(C)c1.Cl [Example 23, 2-[(2-Methyl-4-(ethoxycarbonylamino)phenyl)-amino]-1-pyrroline, hydrochloride] yielded an ED50 [2] of 1.81 mg/kg.
